US7348305B2, “Inhibitor of cardiac tachyarrhythmias” (Department of Veterans Affairs, Rehabilitation, priority 2003, dated 2008)

Tests used:
[1] = tested on: myeloperoxidase (MPO) activity; assay: Leukocyte infiltration by myeloperoxidase (MPO) activity, Model 2; type: in vivo, dog; settings: etanercept pretreated
Procedure: Calculated Oxygen Requirement and Leukocyte Infiltration: The animal's oxygen requirement was estimated by calculation of the double product (heart rate x mean arterial pressure). The myocardial activity of myeloperoxidase (MPO), an enzyme occurring virtually exclusively in neutrophils, was determined by using a modification of the method of Bradley (Mullane et al., 1985). Change in absorbance was measured spectrophotometrically in the supernatants of homogenized myocardium. One unit of MPO is defined as the quantity of enzyme hydrolyzing […] of peroxide per minute at 25° C.

[2] = Side effects of IV injection in dogs; type: in vivo, dog; settings: 2 mg/kg IV into a forepaw vein at 24-hr and 1-hr prior to LAD ligation
Procedure: Anti-TNFα Treatment: A dosage of 2 mg/kg hTNFR:Fc (supplied as etanercept, Amgen, Inc, Thousand Oaks, Calif.) or saline were injected IV into a forepaw vein at 24-hr and again 1-hr prior to LAD ligation. […] This dosage was used after consultation with the pharmaceutical corporate pharmacology section and based on unpublished internal data that this dosage would provide maximal sequestration of tissue and circulating TNFα.

Question: With etanercept as the substance, how does the “leukocyte infiltration, myeloperoxidase ratio of ischemic to normal tissue” value ([1]; Model 2, n=7, saline 11±2.6) read?
Answer: Its value is 1.8±0.2.

Question: And the “decrease in leukocyte accumulation within ischemically injured myocardium” value ([1]; Model 2, versus saline)?
Answer: The value was 9 fold.

Question: And the “side effects of the injection” value [2]?
Answer: The value was “No side effects”.
